Laboratory results from patent publication US4076702A, “Dipeptide derivatives and their production” (Shionogi & Co., Ltd., priority 1974, dated 1978).

Key:
DS male mice [1] = experiment: Anti-pentylenetetrazol activity; format: in vivo; conditions: test compound orally 60 minutes prior to 125 mg/kg s.c. pentylenetetrazol, complete protection against mortality, observed two hours; for ED50: Mus musculus
From the text: (1) Anti-pentylenetetrazol activity:
The convulsions were disregarded.

DS male mice [2] = conditions: oral single dose, observed 72 hours, Bliss method
Procedure: The test compound was orally administered to DS male mice in different single doses. For each dose, 10 mice were used, their weight ranging from 20 to 23 grams. […] The mortality was calculated by the Bliss method [Bliss: Ann.

DS male mice [3] = experiment: Taming activity (inhibition of electroshock-induced fighting response); format: in vivo; conditions: compound given 60 minutes prior, 5 pairs per group; for ED50: Mus musculus
Procedure: This test was measured on DS male mice. […] These pairs of mice were selected in the morning and used for drug test in the afternoon. The test compound was administered to both mice of the pairs 60 minutes prior to the experiment. Results were obtained as the mean percentage of inhibition of fighting response in a group of 5 pairs and shown by ED50 [Tedeschi, et al.: J. Pharmacol Exp. Thev., 125, 28-34 (1959)].

DS male mice [4] = experiment: Rotarod performance activity; format: in vivo; conditions: fall from rod within less than 2 minutes counted as effective, 10 mice per dose; for ED50: Mus musculus
Procedure: (3) Rotarod performance activity
This test was measured on DS male mice. The mouse was put on a scraped rod of wood, 3 cm in diameter, turning at the rate of five rotations per minute. The mice that could remain on the rod for three or more minutes in successive trials were selected and placed in a group of 10 mice for each dose. If the mouse fell down from the rod within less than 2 minutes, the test compound was considered to be effective. Results were shown by ED50 [Dunham, et al.: J. Am. Pharm. Assoc., 46, 208 (1957)].

## CN(C(=O)CNC(=O)CN)c1ccc(Cl)cc1C(=O)c1ccccc1 [Compound No. 1, 2-benzoyl-4-chloro-N-methyl-N^α -glycyl-glycinanilide]
DS male mice [1]
  Anti-pentylenetetrazol activity, ED50: 1.0 mg/kg
DS male mice [2]
  Acute toxicity LD50: 1309 mg/kg
DS male mice [3]
  Taming activity ED50: 10.5 mg/kg
DS male mice [4]
  Rotarod performance ED50: 36.6 mg/kg

## CN(C(=O)CNC(=O)CN)c1ccc(Cl)cc1C(=O)c1ccccc1Cl.O [Compound No. 2, 2-o-chlorobenzoyl-4-chloro-N-methyl-N^α -glycyl-glycinanilide hydrate]
DS male mice [1]
  Anti-pentylenetetrazol activity, ED50: 0.58 mg/kg
DS male mice [2]
  Acute toxicity LD50: 1255 mg/kg
DS male mice [3]
  Taming activity ED50: 3.0 mg/kg
DS male mice [4]
  Rotarod performance ED50: 27.7 mg/kg

## CN(C(=O)CNC(=O)CN)c1ccc(Cl)cc1C(=O)c1ccccc1F.Cl [Compound No. 3, 2-o-fluorobenzoyl-4-chloro-N-methyl-N^α -glycyl-glycinanilide hydrochloride]
DS male mice [1]
  Anti-pentylenetetrazol activity, ED50: 0.33 mg/kg
DS male mice [2]
  Acute toxicity LD50: > 1000 mg/kg
DS male mice [3]
  Taming activity ED50: 1.6 mg/kg
DS male mice [4]
  Rotarod performance ED50: 17.0 mg/kg

## CNC1=Nc2ccc(Cl)cc2C(c2ccccc2)=[N+]([O-])C1 [Compound No. 4, Chlordiazepoxide, reference compound]
DS male mice [1]
  ED50: 3.7 mg/kg
DS male mice [2]
  Acute toxicity LD50: 1090 mg/kg
DS male mice [3]
  ED50: 24 mg/kg
DS male mice [4]
  ED50: 50 mg/kg

## CN1C(=O)CN=C(c2ccccc2)c2cc(Cl)ccc21 [Compound No. 5, Diazepam, reference compound]
DS male mice [1]
  ED50: 1.19 mg/kg
DS male mice [3]
  ED50: 6 mg/kg
DS male mice [4]
  ED50: 9.03 mg/kg
